# Data from the supplement of paper PMC10307832.
# Assays:
# Assay in all cases: relative viability (nuclei count vs DMSO), 5 days (fraction); higher = more cells survive
# [1] = compound: C1/C(=C\C2=CC=CS2)/C(=O)/C(=C/C3=CC=CS3)/C1
# Method in brief: (§1)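 After an overnight hold at 37 °C, lung cancer cell lines in 1536-well plates were pinned with five library-drug doses (not always all listed), each √10 from the next, on vehicle-anchored plates. The cells stayed 5 days without fresh medium, then a one-step fix, permeabilisation and Hoechst stain preceded 4× imaging and MetaXpress nuclear counts. A plate passed only with control CV under 25% and at least one doubling. Viability is the median, over plates, of treated-well nuclei relative to vehicle-well nuclei.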
# TPCA-1 = compound: C1=CC(=CC=C1C2=CC(=C(S2)NC(=O)N)C(=O)N)F [TPCA-1]
# Method in brief: as §1
# Lestaurtinib = compound: C[C@]12O[C@H](C[C@]1(O)CO)n1c3ccccc3c3c4c(c5c6ccccc6n2c5c31)CNC4=O [Lestaurtinib]
# Method in brief: as §1
# [2] = compound: C1/C(=C\C2=CC=CS2)/C(=O)/C(=C/C3=CC=CS3)/C1 + COc1cc2c(Oc3ccc(NC(=O)C4(C(=O)Nc5ccc(F)cc5)CC4)cc3F)ccnc2cc1OCCCN1CCOCC1 [Foretinib] (partner 0.25 µM)
# Method in brief: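 Each reported value is a median over duplicate plates. It expresses relative viability: treated-well nuclei count divided by vehicle-well nuclei count. Lung cancer cell lines in 1536-well plates were dosed by pin tool a day after seeding, alone with one drug or with a fixed anchor-drug dose plus five library-drug doses (not always all listed) in √10 steps, and nuclei were counted after 5 days.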
Cell Line,relative viability ([1]; 0.2 µM),relative viability ([1]; 0.6325 µM),relative viability ([1]; 2 µM),relative viability ([1]; 6.325 µM),relative viability ([1]; 20 µM),relative viability (TPCA-1; 0.04 µM),relative viability (TPCA-1; 0.1265 µM),relative viability (TPCA-1; 0.4 µM),relative viability (TPCA-1; 1.265 µM),relative viability (TPCA-1; 4 µM),relative viability (Lestaurtinib; 0.005 µM),relative viability (Lestaurtinib; 0.01581 µM),relative viability (Lestaurtinib; 0.05 µM),relative viability (Lestaurtinib; 0.1581 µM),relative viability (Lestaurtinib; 0.5 µM),relative viability ([2]; first compound 0.2 µM),relative viability ([2]; first compound 0.6325 µM),relative viability ([2]; first compound 2 µM),relative viability ([2]; first compound 6.325 µM),relative viability ([2]; first compound 20 µM)
NCI-H2228,1.01,0.989,1.15,0.748,1.1,1.09,0.785,1.16,0.984,0.666,1.25,1.11,0.698,0.483,0.258,0.816,0.992,0.869,0.913,0.715
LU99A,1,0.966,1.02,0.788,0.892,1.1,0.909,0.989,0.919,0.437,0.892,0.893,0.625,0.489,0.251,0.794,0.853,1.01,0.753,0.89
NCI-H1437,0.984,0.965,0.949,0.82,0.974,1.01,1.01,1.03,0.971,0.887,1.03,1.15,0.914,0.89,0.835,1.31,1.3,1.25,1.1,1.23
EKVX,0.984,0.928,1.15,0.772,0.961,1.05,0.829,1.04,0.815,0.737,1,1.09,1.05,1.01,0.663,0.82,0.696,0.603,0.615,0.778
IA-LM,1.04,1.01,0.905,0.91,0.94,1.1,0.923,0.963,0.812,0.903,1.11,1.42,1.28,1.21,0.557,1.17,1.24,1.21,1.08,1.06
ABC-1,0.87,1.03,1.13,0.842,0.888,1.02,0.798,0.982,0.771,0.638,0.976,1.01,0.79,0.735,0.327,0.984,0.991,1.1,0.617,1.2
NCI-H520,1.04,1.13,1.12,0.969,0.886,1.16,0.835,0.941,1.1,0.371,1.13,1.07,0.789,0.524,0.292,0.842,0.93,0.804,0.711,0.632
NCI-H1703,1.19,1.2,1.01,0.788,0.958,1.24,0.728,0.911,0.647,0.832,0.945,0.749,0.591,0.272,0.151,0.381,0.451,0.33,0.257,0.337
LCLC-97TM1,1.07,0.966,1.2,0.868,0.852,1.17,0.886,0.994,0.613,0.538,0.702,1.15,0.739,0.398,0.267,0.965,0.97,0.995,0.797,0.943
NCI-H2170,1,0.942,0.991,0.881,0.924,1.19,0.959,0.98,0.895,0.674,0.959,0.832,0.689,0.807,0.494,1.02,0.99,1.02,0.887,1.03
NCI-H1793,0.962,0.953,1.1,0.856,0.87,1.1,0.718,1.08,0.954,0.279,0.949,0.986,0.657,0.828,0.723,0.754,0.629,0.783,0.579,0.625
NCI-H3122,1.03,0.986,1.05,0.892,0.975,1.04,0.924,1,1.01,0.991,1.06,1.11,0.981,1.11,0.615,1.01,0.934,1,0.81,0.846
PC-14,1.03,1.06,1,0.899,0.995,1.03,0.946,1.06,1.04,0.838,1.06,1.11,0.848,0.741,0.344,0.942,0.932,0.937,0.847,0.885
EPLC-272H,1.13,0.925,1.01,0.833,0.786,1.06,0.881,1.12,0.805,0.676,0.801,0.748,0.607,0.444,0.304,0.602,0.776,0.657,0.594,0.601
A-427,1.03,1.05,1.05,0.954,1.01,1.1,0.94,1.11,0.89,0.312,1.05,1.13,0.792,0.435,0.199,1.04,1.01,1.06,0.992,1.16
